Data taken from patent US20260049092A1, “ANTIBACTERIAL COMPOUNDS” (Blacksmith Medicines, Inc., priority 2022, published 2026).
In brackets after ≈: the same amount, converted by molar mass. Read-outs that look alike come from different tables or passages of the source.

Key:
Assay in all cases: Bacterial susceptibility testing (MIC, broth microdilution)
Assay type in all cases: cell-based
E. coli ATCC25922 = conditions: for MIC: Escherichia coli
Protocol: (§1) Minimal inhibitory concentrations (MIC) were determined by the broth microdilution method in accordance with the Clinical and Laboratory Standards Institute (CLSI) guidelines. In brief, organism suspensions were adjusted to a final inoculum between 3×10^5 and 7×10^5 colony-forming units (CFU)/mL. Drug dilutions and inocula were made in sterile, cation adjusted Mueller-Hinton Broth (Beckton Dickinson). In wells, an inoculum volume of 100 μL was mixed to 2 μL of DMSO with 2-fold serial dilutions of drug. All inoculated microdilution trays were incubated in ambient air at 35° C. for 18-24 h. Following incubation, the lowest concentration of the drug that prevented visible growth (OD600 nm<0.05) was recorded as the MIC. Performance of the assay was monitored by the use of laboratory quality -control strains and compounds with defined MIC spectrum, in accordance with CLSI guidelines.

K. pneumoniae ATCC13883 = conditions: for MIC: Klebsiella pneumoniae
Protocol: as §1

P. aeruginosa ATCC27853 = conditions: for MIC: Pseudomonas aeruginosa
Protocol: as §1

P. aeruginosa PAO1 = conditions: for MIC: Pseudomonas aeruginosa
Protocol: as §1

[1] = ATCC25922, broth microdilution, cation adjusted Mueller-Hinton Broth, 35° C., 18-24 h, read-out: E. coli ATCC25922 MIC
[2] = ATCC13883, broth microdilution, cation adjusted Mueller-Hinton Broth, 35° C., 18-24 h, read-out: K. pneumoniae ATCC13883 MIC
[3] = ATCC27853, broth microdilution, cation adjusted Mueller-Hinton Broth, 35° C., 18-24 h, read-out: P. aeruginosa ATCC27853 MIC
[4] = PAO1, broth microdilution, cation adjusted Mueller-Hinton Broth, 35° C., 18-24 h, read-out: P. aeruginosa PAO1 MIC
[5] = ATCC25922, read-out: E. coli ATCC25922 MIC
[6] = ATCC13883, read-out: K. pneumoniae ATCC13883 MIC
[7] = ATCC27853, read-out: P. aeruginosa ATCC27853 MIC
[8] = PAO1, read-out: P. aeruginosa PAO1 MIC
[9] = broth microdilution, cation adjusted Mueller-Hinton Broth, 35° C., 18-24 h

SMILES | MIC (E. coli ATCC25922; [1]) [µg/mL] | MIC (K. pneumoniae ATCC13883; [2]) [µg/mL] | MIC (P. aeruginosa ATCC27853; [3]) [µg/mL] | MIC (P. aeruginosa PAO1; [4]) [µg/mL] | also measured
CNC(=O)C(C)Oc1ccc(-c2ccc(C#C[C@@H](CO)n3ccnc3[C@H](C)O)cc2)cc1 (mixture of isomers) [Compound 102, 2-((4′-((S)-4-hydroxy-3-(2-((S)-1-hydroxyethyl)-1H-imidazol-1-yl)but-1-yn-1-yl)-[1,1′-biphenyl]-4-yl)oxy)-N-methylpropanamide] | 2 (≈ 4.61 µM) | 4 (≈ 9.23 µM) | 8 (≈ 18.5 µM) | 4 (≈ 9.23 µM) | 
C[C@H](O)c1nccn1[C@@H](C#Cc1ccc(-c2ccc(NC3COC[C@H]3O)cc2F)cc1)CO (single isomer, unassigned) [Compound 58] | 1 (≈ 2.21 µM) | 4 (≈ 8.86 µM) | 4 (≈ 8.86 µM) | 4 (≈ 8.86 µM) | 
C[C@H](O)c1nccn1[C@@H](C#Cc1ccc(-c2ccc(OC3COC3)cc2)cc1)CO (single isomer, unassigned) [Compound 107] | 0.25 (≈ 0.618 µM) | 0.5 (≈ 1.24 µM) | 4 (≈ 9.89 µM) | 2 (≈ 4.94 µM) | 
C[C@H](O)c1nccn1[C@@H](C#Cc1ccc(-c2ccc(CO[C@@H]3COC[C@H]3O)cc2)cc1)CO (single isomer, unassigned) [Compound 123] | 2 (≈ 4.46 µM) | 2 (≈ 4.46 µM) | 4 (≈ 8.92 µM) | 2 (≈ 4.46 µM) | 
CO[C@H]1C[C@@H](c2ccc(-c3ccc(C#C[C@@H](CO)n4ccnc4[C@H](C)O)cc3)cc2)C1 (racemic) [Compound 118, (S)-2-(2-((S)-1-hydroxyethyl)-1H-imidazol-1-yl)-4-(4′-((rac-cis)-3-methoxycyclobutyl)-[1,1′-biphenyl]-4-yl)but-3-yn-1-ol] | 0.12 (≈ 0.288 µM) | 0.38 (≈ 0.912 µM) | 4 (≈ 9.6 µM) | 2 (≈ 4.8 µM) | 
C[C@H](O)c1nccn1[C@@H](C#Cc1ccc(-c2ccc(OC3CN(c4nccn4C)C3)cc2)cc1)CO [Compound 98, (S)-2-(2-((S)-1-hydroxyethyl)-1H-imidazol-1-yl)-4-(4′-((1-(1-methyl-1H-imidazol-2-yl)azetidin-3-yl)oxy)-[1,1′-biphenyl]-4-yl)but-3-yn-1-ol] |  |  |  |  | MIC (E. coli ATCC25922; [5]): 0.5 µg/mL (≈ 1.03 µM); MIC (K. pneumoniae ATCC13883; [6]): 2 µg/mL (≈ 4.14 µM); MIC (P. aeruginosa ATCC27853; [7]): 8 µg/mL (≈ 16.5 µM); MIC (P. aeruginosa PAO1; [8]): 4 µg/mL (≈ 8.27 µM)
C[C@H](O)c1nccn1[C@@H](C#Cc1ccc(-c2ccc(OC3CCN(CC#N)C3)cc2)cc1)CO (mixture of isomers) [Compound 104, 2-(3-((4′-((S)-4-hydroxy-3-(2-((S)-1-hydroxyethyl)-1H-imidazol-1-yl)but-1-yn-1-yl)-[1,1′-biphenyl]-4-yl)oxy)pyrrolidin-1-yl)acetonitrile] | 2 (≈ 4.38 µM) | 4 (≈ 8.76 µM) | 2 (≈ 4.38 µM) | 2 (≈ 4.38 µM) | 
C[C@H](O)c1nccn1[C@@H](C#Cc1ccc(-c2ccc(NC3CN(CCC#N)C3)cc2)cc1)CO [Compound 79, 3-(3-((4′-((S)-4-hydroxy-3-(2-((S)-1-hydroxyethyl)-1H-imidazol-1-yl)but-1-yn-1-yl)-[1,1′-biphenyl]-4-yl)amino)azetidin-1-yl)propanenitrile] |  |  |  |  | MIC (E. coli ATCC25922; [5]): 1 µg/mL (≈ 2.2 µM); MIC (K. pneumoniae ATCC13883; [6]): 8 µg/mL (≈ 17.6 µM); MIC (P. aeruginosa ATCC27853; [7]): 4 µg/mL (≈ 8.78 µM); MIC (P. aeruginosa PAO1; [8]): 2 µg/mL (≈ 4.39 µM)
C[C@H](O)c1nccn1[C@@H](C#Cc1ccc(-c2ccc(OCC3(C)COC3)cc2)cc1)CO [Compound 80, (S)-2-(2-((S)-1-hydroxyethyl)-1H-imidazol-1-yl)-4-(4′-((3-methyloxetan-3-yl)methoxy)-[1,1′-biphenyl]-4-yl)but-3-yn-1-ol] | 0.5 (≈ 1.16 µM) | 2 (≈ 4.62 µM) | 4 (≈ 9.25 µM) | 2 (≈ 4.62 µM) | 
CC(N1CC(Oc2ccc(-c3ccc(C#C[C@@H](CO)n4ccnc4[C@H](C)O)cc3)cc2)C1)C(F)(F)F (mixture of isomers) [Compound 97, (2S)-2-(2-((S)-1-hydroxyethyl)-1H-imidazol-1-yl)-4-(4′-((1-(1,1,1-trifluoropropan-2-yl)azetidin-3-yl)oxy)-[1,1′-biphenyl]-4-yl)but-3-yn-1-ol] |  |  |  |  | MIC (E. coli ATCC25922; [5]): 4 µg/mL (≈ 8.01 µM); MIC (K. pneumoniae ATCC13883; [6]): 8 µg/mL (≈ 16 µM); MIC (P. aeruginosa ATCC27853; [7]): 32 µg/mL (≈ 64.1 µM); MIC (P. aeruginosa PAO1; [8]): 16 µg/mL (≈ 32 µM)
C[C@H](O)c1nccn1[C@@H](C#Cc1ccc(-c2ccc(OC3CN(C(=O)CO)C3)cc2)cc1)CO [Compound 91, 2-hydroxy-1-(3-((4′-((S)-4-hydroxy-3-(2-((S)-1-hydroxyethyl)-1H-imidazol-1-yl)but-1-yn-1-yl)-[1,1′-biphenyl]-4-yl)oxy)azetidin-1-yl)ethan-1-one] |  |  |  |  | MIC (E. coli ATCC25922; [5]): 2 µg/mL (≈ 4.33 µM); MIC (K. pneumoniae ATCC13883; [6]): 4 µg/mL (≈ 8.67 µM); MIC (P. aeruginosa ATCC27853; [7]): 4 µg/mL (≈ 8.67 µM); MIC (P. aeruginosa PAO1; [8]): 2 µg/mL (≈ 4.33 µM)
C[C@H](O)c1nccn1[C@@H](C#Cc1ccc(-c2ccc(O[C@@H]3COC[C@H]3O)cc2F)cc1)CO (racemic) [Compound 1, (rac-trans)-4-((2-fluoro-4′-((S)-4-hydroxy-3-(2-((S)-1-hydroxyethyl)-1H-imidazol-1-yl)but-1-yn-1-yl)-[1,1′-biphenyl]-4-yl)oxy)tetrahydrofuran-3-ol] | 0.5 (≈ 1.11 µM) | 2 (≈ 4.42 µM) | 4 (≈ 8.84 µM) | 2 (≈ 4.42 µM) | 
C[C@H](O)c1nccn1[C@@H](C#Cc1ccc(-c2ccc(O[C@H]3C[C@H](C#N)C3)cc2)cc1)CO (racemic) [Compound 130, (rac-trans)-3-((4′-((S)-4-hydroxy-3-(2-((S)-1-hydroxyethyl)-1H-imidazol-1-yl)but-1-yn-1-yl)-[1,1′-biphenyl]-4-yl)oxy) cyclobutane-1-carbonitrile] | 0.25 (≈ 0.585 µM) | 1 (≈ 2.34 µM) | > 32 | 2 (≈ 4.68 µM) | 
C[C@H](O)c1nccn1[C@@H](C#Cc1ccc(-c2ccc(OC3CCN(CC#N)CC3)cc2)cc1)CO (single isomer, unassigned) [Compound 103] | 1 (≈ 2.13 µM) | 2 (≈ 4.25 µM) | 2 (≈ 4.25 µM) | 2 (≈ 4.25 µM) | 
CO[C@@H]1COC[C@H]1Oc1ccc(-c2ccc(C#C[C@@H](CO)n3ccnc3[C@H](C)O)cc2)cc1 (single isomer, unassigned) [Compound 125] |  |  |  |  | E. coli ATCC25922 MIC (E. coli ATCC25922; [9]): 1 µg/mL; K. pneumoniae ATCC13883 MIC (K. pneumoniae ATCC13883; [9]): 2 µg/mL; P. aeruginosa ATCC27853 MIC (P. aeruginosa ATCC27853; [9]): 8 µg/mL; P. aeruginosa PAO1 MIC (P. aeruginosa PAO1; [9]): 2 µg/mL
C[C@H](O)c1nccn1[C@@H](C#Cc1ccc(-c2ccc(O[C@H]3C[C@H](NCC#N)C3)cc2)cc1)CO (racemic) [Compound 121, 2-(((rac-trans)-3-((4′-((S)-4-hydroxy-3-(2-((S)-1-hydroxyethyl)-1H-imidazol-1-yl)but-1-yn-1-yl)-[1,1′-biphenyl]-4-yl)oxy)cyclobutyl)amino) acetonitrile] | 0.5 (≈ 1.1 µM) | 1 (≈ 2.19 µM) | 4 (≈ 8.76 µM) | 1 (≈ 2.19 µM) | 
C[C@H](O)c1nccn1[C@@H](C#Cc1ccc(-c2ccc(NC3COC[C@@H]3O)cc2F)cc1)CO (single isomer, unassigned) [Compound 57] | 1 (≈ 2.21 µM) | 4 (≈ 8.86 µM) | 2 (≈ 4.43 µM) | 2 (≈ 4.43 µM) | 
C[C@H](O)c1nccn1[C@@H](C#Cc1ccc(-c2ccc(OC3COC[C@H]3O)c(F)c2)cc1)CO (single isomer, unassigned) [Compound 8] | 2 (≈ 4.42 µM) | 4 (≈ 8.84 µM) | 4 (≈ 8.84 µM) | 2 (≈ 4.42 µM) | 
C[C@H](O)c1nccn1[C@@H](C#Cc1ccc(-c2ccc3c(c2)NCCO3)cc1)CO [Compound 83, (S)-4-(4-(3,4-dihydro-2H-benzo[b][1,4]oxazin-6-yl)phenyl)-2-(2-((S)-1-hydroxyethyl)-1H-imidazol-1-yl)but-3-yn-1-ol] | 2 (≈ 5.14 µM) | 4 (≈ 10.3 µM) | > 32 | 16 (≈ 41.1 µM) | 
CC(=O)NCc1ccc(-c2ccc(C#C[C@@H](CO)n3ccnc3[C@H](C)O)cc2)cc1 (single isomer, unassigned) [Compound 143] | 4 (≈ 9.91 µM) | 4 (≈ 9.91 µM) | 8 (≈ 19.8 µM) | 2 (≈ 4.96 µM) | 
C[C@H](O)c1nccn1[C@@H](C#Cc1ccc(-c2ccc(O[C@@H]3COC[C@H]3O)c(Cl)c2)cc1)CO (single isomer, unassigned) [Compound 62] | 4 (≈ 8.53 µM) | 8 (≈ 17.1 µM) | > 32 | 16 (≈ 34.1 µM) | 
C[C@H](O)c1nccn1[C@@H](C#Cc1ccc(-c2ccc(O[C@@H]3COC[C@H]3O)c(F)c2F)cc1)CO (single isomer, unassigned) [Compound 13] | 2 (≈ 4.25 µM) | 4 (≈ 8.5 µM) | 16 (≈ 34 µM) | 4 (≈ 8.5 µM) | 
C[C@H](O)c1nccn1[C@@H](C#Cc1ccc(-c2ccc(CO[C@H]3COC[C@@H]3O)c(F)c2)cc1)CO (single isomer, unassigned) [Compound 45] | 1 (≈ 2.14 µM) | 2 (≈ 4.29 µM) | 4 (≈ 8.57 µM) | 2 (≈ 4.29 µM) | 
C[C@H](O)c1nccn1[C@@H](C#Cc1ccc(-c2ccc(OC3COC[C@H]3O)c(F)c2)cc1)CO (mixture of isomers) [Compound 6, (rac-trans)-4-((3-fluoro-4′-((S)-4-hydroxy-3-(2-((S)-1-hydroxyethyl)-1H-imidazol-1-yl)but-1-yn-1-yl)-[1,1′-biphenyl]-4-yl)oxy)tetrahydrofuran-3-ol] | 2 (≈ 4.42 µM) | 4 (≈ 8.84 µM) | 4 (≈ 8.84 µM) | 2 (≈ 4.42 µM) | 
